Reference: patent publication US8110570B2, “Modulators of acetyl-coenzyme A carboxylase and methods of use thereof” (Cropsolution, Inc., priority 2008, dated 2012)

Assays:
[1] = system: HCT-116 human colon cancer cells; assay: MTT Cell Proliferation Assay; format: cell-based; conditions: 72 hours, read-out: Percent of Control HCT-116
Method: (§1) The anti-proliferative activity of test compounds against human tumor cell lines is evaluated in vitro using the ATCC's MTT Cell Proliferation Assay (Catalog No. 30-100K). Cell lines are grown using media, serum, and culture conditions recommended by the ATCC. Stock cultures are allowed to grow to 70-80% confluence. Cells are seeded into 96-well culture plates at a predetermined density on day 0 in complete medium (0.1 mL). Plates are placed in a humidified incubator at 37° C. with 5% CO2 and 95% HEPA filtered room air for 24 hours. At this point compound (0.1 mL of 2× stock (in media)) is added to the indicated wells and the plates are returned to the incubator for 72 hours. Cell proliferation is measured by addition of MTT reagent to each well and incubated for an additional 4 hours, followed by addition of cell lysis/MTT solublization reagent and incubating overnight. […] Results are expressed as percent of control cells versus compound concentration. Compounds of the present invention, and salts thereof, were evaluated for anti-proliferative activity as described above.

[2] = system: PC-3 human prostate cancer cells; assay: MTT Cell Proliferation Assay; format: cell-based; conditions: 72 hours, read-out: Percent of Control PC-3
Method: as §1

[3] = system: A2780 human ovary cancer cells; assay: MTT Cell Proliferation Assay; format: cell-based; conditions: 72 hours, read-out: Percent of Control A2780
Method: as §1

[4] = system: MDA-MB-231 human breast cancer cells; assay: MTT Cell Proliferation Assay; format: cell-based; conditions: 72 hours, read-out: Percent of Control MDA-MB-231
Method: as §1

hACC1 = target: T1, hACC1 (Homo sapiens, UniProt Q13085); assay: [14C]bicarbonate incorporation assay, overall ACC activity; format: biochemical; conditions: recombinant hACC1, overall ACC activity
T1 construct: PCR primers were designed for full-length hACC1 and hACC2 using GenBank submissions AY237919 and AJ575592, respectively; His tag (C); made in house; host or cells: baculovirus, Sf9 insect cells
Outline: (§2)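 His-tagged full-length hACC1 or hACC2 (residues 1-148 deleted, Met-Gly added), expressed in sf9 cells with biotin and purified, were assayed by [14C]bicarbonate incorporation into acetyl-CoA. Reactions at pH 7.4 with 2 mM acetyl-CoA, 12 mM NaHCO3 and 1% DMSO were started with 2 mM ATP and run 10 min at 37° C. Acid-stable label was counted and IC50 obtained from dose-response fits.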

hACC2 = target: T2, hACC2 (Homo sapiens, UniProt O00763); assay: as above; format: biochemical; conditions: recombinant hACC2, overall ACC activity
T2 construct: delete amino acids 1-148 and add Met-Gly in front of Lys149 in the final product; His tag (C); made in house; host or cells: baculovirus, Sf9 insect cells
Outline: as §2

[5] = system: hepatic fatty acid synthesis; assay: In vivo inhibition of rat hepatic fatty acid synthesis; conditions: oral
Method: In vivo measurement of fatty acid synthesis inhibition in mammals. Incorporation of [2-^14C]acetate into saponifiable lipids in the livers of mammals (e.g. Sprague Dawley rats, Charles River Laboratories, Boston, Mass. or Harlan Laboratories, Indianapolis, Ind.) can be measured as described previously (Harwood Jr. H. J. et al., J Biol Chem, 39: 37099-37111 (2003)). For example, animals given food and water ad libitum are treated orally at volume of 1.0 ml/200 g of body weight with either an aqueous solution containing 0.5% methyl cellulose (vehicle) or an aqueous solution containing 0.5% methyl cellulose containing test compound. One hour after compound administration, animals receive an intraperitoneal injection of [2-^14C]acetate (0.02 mL, 1 mCi/mL; 50 mCi/mmol. One hour after radiolabel administration, animals are sacrificed by CO2 asphyxiation, and two liver pieces (about 0.75 g each) are removed and saponified at 70° C. for 120 min in 2.5 M NaOH (1.5 mL). After saponification, absolute EtOH (2.5 mL) is added to each sample and the solutions are mixed and allowed to stand overnight. Petroleum ether (4.8 mL) is then added to each sample, and after vigorous shaking (2 min) the mixtures are centrifuged at 1000×g (5 min). The petroleum ether layer containing the nonsaponifiable lipids is removed and discarded. The remaining aqueous layer is acidified (pH<2) by addition of 12 M HCl (0.6 mL) and extracted two times with petroleum ether (4.8 mL). The pooled organic fractions are transferred to liquid scintillation vials, dried under nitrogen, dissolved in Aquasol scintillation fluid (7 ml), and radioactivity is quantified by liquid scintillation counting. Inhibition of fatty acid synthesis by the test compound is expressed as a relative percent inhibition of measured incorporation of [2-^14C]acetate into saponifiable lipids during the interval between [2-^14C]acetate injection and CO2 asphyxiation in animals receiving test compound, compared to control animals receiving only the vehicle.
Compounds of the present invention, and salts thereof, were evaluated for inhibition of fatty acid synthesis as described above.

[6] = target: uACC (Ustilago maydis ACC) (Ustilago maydis, UniProt A0A0D1DYD5); assay: [14C]bicarbonate incorporation assay, overall ACC activity; format: biochemical
C2C12 cells = assay: Fatty acid oxidation assay, [1-14C]palmitate to CO2; format: cell-based, mouse; conditions: compared to untreated controls
Source text: (§3) The in vivo ACC inhibitory activity of compounds in this invention can be confirmed in cultured cells using standard procedures that are well known to those skilled in the art. For example, since ACC catalyzes the first committed step in fatty acid biosynthesis, the in vivo activity of compounds can be confirmed by measuring their ability to prevent the formation of radiolabeled fatty acids from radiolabeled acetate in cultured human hepatoma cells (HepG2). In addition, since the malonyl-CoA produced by ACC inhibits fatty acid oxidation, the in vivo ACC inhibitory activity of compounds can be further confirmed by measuring the stimulation of fatty acid oxidation in cultured mouse myoblast cells (C2C12).
Fatty acid oxidation assays are performed essentially as described (Beckers et al., Cancer Res, 2007, 67: 8180-8187). Briefly, C2C12 cells are plated at 600,000 cells/T25 flask. The next day, media is changed and the DMSO with or without test compound is added to a final concentration of 0.5% (v/v). After 1 h at 37° C. in atmosphere of 5% CO2, freshly made 2 uCi of FA-free bovine serum albumin-[1-^14C] palmitate complex is added to each flask. The flasks are then sealed with a stopper and incubated 6 h at 37° C. after which evolved CO2 is liberated by injection of perchloric acid to final concentration of 5% and captured by incubating the flasks overnight in the presence of filter paper soaked with 5% KOH. The filters are then air-dried and incubated with scintillation cocktail overnight for equilibrium. Radioactivity is quantified by scintillation counting.

HepG2 cells = assay: Fatty acid synthesis assay, 14C-acetate incorporation into phospholipids; format: cell-based; conditions: Homo sapiens, 24 h, read-out: inhibition of radiolabel incorporation into phospholipids
Source text: as §3
Fatty acid synthesis assays are performed with slight modifications to published procedures (Beckers et al., Cancer Res, 2007, 67: 8180-8187; Wang, J Lipid Res., 2006, 47:2028-41). Briefly, HepG2 cells are grown in Dulbecco's modified eagles medium containing 10% fetal calf serum in 6-well culture plates. Cells are treated for 24 h with test compounds added as DMSO stock solutions to a final DMSO concentration of 0.5% (v/v). After test compound incubation, ^14C—[2]-acetate is added (3 μCi/6 well plate) and cells are further incubated for 4 hrs. Cells are then harvested in 40% methanol and assayed for total protein. Total lipids are extracted with chloroform:methanol (2:1) and ^14C-radioactivity is quantified in the aqueous and organic phases. Total lipids in the organic phase are separated by thin-layer chromatography (TLC, silica gel 60A) using hexane:ether:acetic acid (90:30:1) as the mobile phase. Radioactivity distribution of lipid classes on TLC plates is quantified by phosphorimaging (Molecular Dynamics Storm 820). Compound 6 inhibited radiolabel incorporation into phospholipids 32% and 14% at 10 μM and 1 μM, respectively, while Compound 2 inhibited radiolabel incorporation into phospholipids 93% and 42% at 10 μM and 1 μM, respectively.

hACC1-CT = target: T3, hACC1-CT (Homo sapiens, UniProt Q13085); assay: acetyl-CoA/malonyl-CoA isotope exchange assay, CT half-reaction; format: biochemical
T3 construct: PCR primers were designed for full-length hACC1 and hACC2 using GenBank submissions AY237919 and AJ575592, respectively; His tag (C); made in house; host or cells: baculovirus, Sf9 insect cells
Method: Overall ACC activity is comprised of two half-reactions, the BC reaction (the ATP-dependent carboxylation of biotin) and the CT reaction (the transfer of the carboxyl group from biotin to acetyl-CoA to form malonyl-CoA). Thus, it is of interest to localize the site of action of ACC inhibitors. To this end, representative compounds are tested in an acetyl-CoA/malonyl-CoA isotope exchange reaction which specifically measures the CT-half reaction. This assay is performed with slight modifications of published procedures (Gregolin et al., J Biol Chem, 1968, 243:4227-4235; Rendina et al., J Agric Food Chem, 1990, 38:1282-1287). Briefly, the reaction mixture (50 μL) contained 50 mM Hepes (pH 7.4), 20 mM K-citrate, 1.5 mM MgSO4, 4 mM malonyl-CoA, 1.67 mM acetyl-CoA, 0.34 mM [^14C]acetyl-CoA (about 60 mCi/mmol), 0.75 mg/mL BSA, and 1% (v/v) DMSO with or without inhibitor. Reactions are initiated by the addition of hACCl (0.3 μg) or hACC2 (0.15 μg) enzyme and incubated at 37° C. for 10 min. Reactions are stopped by addition of a 0.2M sodium arsenate solution containing 1U of phosphotransacetylase (13.5 μL) and incubation at room temperature for 30 min. […] The samples are then resuspended in water (200 μL), added to scintillation cocktail (3 mL), and counted in a scintillation counter to quantify radiolabel incorporated into malonyl-CoA. […]

T2 sequence (O00763 149-2458 limits assumed): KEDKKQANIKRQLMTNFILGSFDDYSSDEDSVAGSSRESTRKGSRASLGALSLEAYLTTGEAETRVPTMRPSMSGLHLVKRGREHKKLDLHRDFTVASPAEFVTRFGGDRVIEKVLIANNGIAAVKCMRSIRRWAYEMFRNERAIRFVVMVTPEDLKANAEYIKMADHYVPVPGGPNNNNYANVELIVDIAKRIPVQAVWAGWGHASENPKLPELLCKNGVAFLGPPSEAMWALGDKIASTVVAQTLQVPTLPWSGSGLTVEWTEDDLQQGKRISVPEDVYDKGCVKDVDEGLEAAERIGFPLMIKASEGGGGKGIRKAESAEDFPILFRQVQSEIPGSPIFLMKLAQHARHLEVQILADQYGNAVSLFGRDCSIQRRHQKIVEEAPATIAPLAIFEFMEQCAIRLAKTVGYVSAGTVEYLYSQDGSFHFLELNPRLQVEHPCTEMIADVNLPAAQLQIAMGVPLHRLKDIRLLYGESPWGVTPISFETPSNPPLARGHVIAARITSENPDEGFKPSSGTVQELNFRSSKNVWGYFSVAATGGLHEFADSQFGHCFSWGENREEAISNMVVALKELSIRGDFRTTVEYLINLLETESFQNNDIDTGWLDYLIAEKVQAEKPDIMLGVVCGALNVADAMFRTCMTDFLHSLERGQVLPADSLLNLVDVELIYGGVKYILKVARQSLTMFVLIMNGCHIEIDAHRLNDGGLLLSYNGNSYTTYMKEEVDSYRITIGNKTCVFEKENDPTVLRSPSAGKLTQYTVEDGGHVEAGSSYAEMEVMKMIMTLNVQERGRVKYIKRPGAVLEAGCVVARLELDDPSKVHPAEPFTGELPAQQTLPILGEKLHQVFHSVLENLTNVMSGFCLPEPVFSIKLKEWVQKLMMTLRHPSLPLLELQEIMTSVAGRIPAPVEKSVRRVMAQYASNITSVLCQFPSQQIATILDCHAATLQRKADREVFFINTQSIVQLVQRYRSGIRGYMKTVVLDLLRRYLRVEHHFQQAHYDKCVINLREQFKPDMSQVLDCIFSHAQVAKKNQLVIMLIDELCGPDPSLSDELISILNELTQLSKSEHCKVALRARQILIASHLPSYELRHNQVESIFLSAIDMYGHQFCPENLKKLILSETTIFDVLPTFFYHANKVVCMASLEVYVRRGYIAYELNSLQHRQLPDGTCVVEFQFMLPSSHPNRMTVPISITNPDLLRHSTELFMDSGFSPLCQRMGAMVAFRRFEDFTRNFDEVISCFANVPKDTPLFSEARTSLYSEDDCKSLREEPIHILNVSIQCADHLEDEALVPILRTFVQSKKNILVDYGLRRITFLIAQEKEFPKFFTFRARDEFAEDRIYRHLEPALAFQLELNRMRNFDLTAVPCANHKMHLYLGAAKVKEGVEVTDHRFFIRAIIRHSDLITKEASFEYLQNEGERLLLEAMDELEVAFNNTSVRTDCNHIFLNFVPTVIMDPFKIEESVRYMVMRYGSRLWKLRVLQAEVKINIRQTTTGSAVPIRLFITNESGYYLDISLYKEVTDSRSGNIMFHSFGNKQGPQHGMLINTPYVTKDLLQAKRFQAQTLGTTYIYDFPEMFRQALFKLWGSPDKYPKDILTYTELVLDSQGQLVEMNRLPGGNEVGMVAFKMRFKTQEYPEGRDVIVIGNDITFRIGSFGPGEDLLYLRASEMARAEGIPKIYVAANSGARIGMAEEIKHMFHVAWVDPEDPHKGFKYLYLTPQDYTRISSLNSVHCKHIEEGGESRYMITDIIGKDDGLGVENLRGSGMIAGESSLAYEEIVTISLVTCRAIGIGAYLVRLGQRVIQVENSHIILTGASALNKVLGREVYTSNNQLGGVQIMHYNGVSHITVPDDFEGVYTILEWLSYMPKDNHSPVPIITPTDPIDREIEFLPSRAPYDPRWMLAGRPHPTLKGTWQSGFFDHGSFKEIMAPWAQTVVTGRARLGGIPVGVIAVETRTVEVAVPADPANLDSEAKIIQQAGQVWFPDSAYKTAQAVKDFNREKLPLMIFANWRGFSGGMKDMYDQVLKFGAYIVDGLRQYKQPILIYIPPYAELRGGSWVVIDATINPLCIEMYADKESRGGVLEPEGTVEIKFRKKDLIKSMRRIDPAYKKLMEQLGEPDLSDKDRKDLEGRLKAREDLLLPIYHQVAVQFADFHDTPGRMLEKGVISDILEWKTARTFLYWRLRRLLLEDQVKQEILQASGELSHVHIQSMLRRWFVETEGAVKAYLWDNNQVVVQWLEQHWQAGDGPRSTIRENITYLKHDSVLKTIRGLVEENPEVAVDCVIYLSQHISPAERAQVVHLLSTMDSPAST
uACC (Ustilago maydis ACC), sequence (A0A0D1DYD5 entry or part of it): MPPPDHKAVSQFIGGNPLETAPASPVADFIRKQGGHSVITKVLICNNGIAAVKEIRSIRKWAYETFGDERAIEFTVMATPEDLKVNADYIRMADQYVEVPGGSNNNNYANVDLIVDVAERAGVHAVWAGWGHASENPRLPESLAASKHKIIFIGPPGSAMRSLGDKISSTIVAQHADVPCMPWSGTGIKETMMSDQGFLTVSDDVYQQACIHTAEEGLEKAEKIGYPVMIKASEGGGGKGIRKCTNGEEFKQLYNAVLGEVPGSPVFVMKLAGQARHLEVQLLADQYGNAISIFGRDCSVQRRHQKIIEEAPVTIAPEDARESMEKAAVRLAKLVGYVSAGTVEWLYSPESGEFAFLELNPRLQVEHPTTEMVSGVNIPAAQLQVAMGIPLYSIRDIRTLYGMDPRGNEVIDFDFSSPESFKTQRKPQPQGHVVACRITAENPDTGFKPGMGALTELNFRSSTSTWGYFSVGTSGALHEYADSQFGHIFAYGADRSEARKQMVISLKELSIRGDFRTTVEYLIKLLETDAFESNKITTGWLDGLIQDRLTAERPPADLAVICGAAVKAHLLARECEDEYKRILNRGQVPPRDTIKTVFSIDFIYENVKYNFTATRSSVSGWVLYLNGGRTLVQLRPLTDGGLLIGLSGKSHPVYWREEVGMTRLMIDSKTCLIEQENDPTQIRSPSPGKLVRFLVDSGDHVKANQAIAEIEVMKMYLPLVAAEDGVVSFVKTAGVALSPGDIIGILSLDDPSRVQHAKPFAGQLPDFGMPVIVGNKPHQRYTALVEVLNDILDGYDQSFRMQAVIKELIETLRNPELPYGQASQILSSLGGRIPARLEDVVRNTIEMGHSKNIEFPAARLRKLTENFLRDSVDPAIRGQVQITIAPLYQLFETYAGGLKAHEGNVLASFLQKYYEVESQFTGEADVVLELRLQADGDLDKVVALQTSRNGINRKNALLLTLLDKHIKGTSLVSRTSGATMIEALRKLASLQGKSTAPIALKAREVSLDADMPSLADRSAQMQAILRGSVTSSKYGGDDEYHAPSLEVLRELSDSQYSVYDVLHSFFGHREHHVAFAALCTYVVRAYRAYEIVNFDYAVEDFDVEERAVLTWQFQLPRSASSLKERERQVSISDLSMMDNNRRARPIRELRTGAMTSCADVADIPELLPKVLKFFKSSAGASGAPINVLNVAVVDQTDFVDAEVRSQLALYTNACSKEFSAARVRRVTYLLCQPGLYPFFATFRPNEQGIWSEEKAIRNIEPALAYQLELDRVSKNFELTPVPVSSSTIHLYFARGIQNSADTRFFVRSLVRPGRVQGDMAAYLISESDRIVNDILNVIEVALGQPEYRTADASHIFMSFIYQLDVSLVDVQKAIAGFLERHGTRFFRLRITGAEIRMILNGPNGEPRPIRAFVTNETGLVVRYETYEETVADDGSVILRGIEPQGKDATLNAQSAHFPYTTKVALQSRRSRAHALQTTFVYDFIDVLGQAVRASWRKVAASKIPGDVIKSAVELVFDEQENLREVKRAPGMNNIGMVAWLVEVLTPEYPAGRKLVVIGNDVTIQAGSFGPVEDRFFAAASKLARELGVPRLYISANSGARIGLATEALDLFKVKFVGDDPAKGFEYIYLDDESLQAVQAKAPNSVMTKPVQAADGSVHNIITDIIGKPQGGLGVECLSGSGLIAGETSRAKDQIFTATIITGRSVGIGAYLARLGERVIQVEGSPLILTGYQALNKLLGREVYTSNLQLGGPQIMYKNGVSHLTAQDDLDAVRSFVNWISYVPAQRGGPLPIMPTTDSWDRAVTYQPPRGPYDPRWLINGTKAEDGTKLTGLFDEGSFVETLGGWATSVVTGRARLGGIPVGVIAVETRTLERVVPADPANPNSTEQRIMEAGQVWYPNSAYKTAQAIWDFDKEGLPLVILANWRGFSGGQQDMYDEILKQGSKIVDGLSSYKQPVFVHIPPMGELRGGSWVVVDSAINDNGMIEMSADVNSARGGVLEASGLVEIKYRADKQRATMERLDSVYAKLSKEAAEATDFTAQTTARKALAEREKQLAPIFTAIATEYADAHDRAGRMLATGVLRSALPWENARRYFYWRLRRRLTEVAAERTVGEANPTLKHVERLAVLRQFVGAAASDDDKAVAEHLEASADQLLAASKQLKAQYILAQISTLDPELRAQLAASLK

Compound	activity at 3.3 µM [1]	activity at 10 µM [1]	activity at 3.3 µM [2]	activity at 10 µM [2]	activity at 3.3 µM [3]	activity at 10 µM [3]	activity at 3.3 µM [4]	activity at 10 µM [4]	IC50 (hACC1)	IC50 (hACC2)	Percent Inhibition at 30 mg/Kg [5]	IC50 [6]	stimulation of fatty acid oxidation (C2C12 cells; C2C12, 0.2 μM)	stimulation of fatty acid oxidation (C2C12 cells; C2C12, 2 μM)	inhibition at 1 µM (HepG2 cells; HepG2, 1 μM)	inhibition at 10 µM (HepG2 cells; HepG2, 10 μM)	Percent Inhibition at 10 mg/Kg [5]	IC50 (hACC1-CT)
CCOc1ccc2c(c1)C(=O)NC1(CCN(C(=O)c3[nH]c4c(OC)cccc4c3C)CC1)O2 [Compound 144]	64.9%	39.1%	76.5%	67.2%	65%	25.1%	88.9%	34.5%	61 nM	88 nM	9%	14000 nM	–	–	–	–	–	–
Cc1c(C(=O)N2CCC3(CC2)NC(=O)c2ccccc2O3)[nH]c2ccc(F)cc12 [Compound 6, 1′-[(5-Fluoro-3-methyl-1H-indol-2-yl)carbonyl]spiro[2H-1,3-benzoxazin-2,4′-piperidin]-4-(3H)-one]	–	–	–	–	–	–	–	–	2300 nM	2000 nM	–	40000 nM	260%	299%	14%	32%	–	–
COc1cc(C(=O)N2CCC3(CC2)NC(=O)c2cc(OC(F)(F)F)ccc2O3)nc2c(OC)cccc12 [Compound 172]	61.4%	41.6%	63%	55.7%	97.4%	65.5%	54.1%	29.5%	7 nM	–	–	–	–	–	–	–	5%	–
COc1ccc(OC)c2[nH]c(C(=O)N3CCC4(CC3)NC(=O)c3ccccc3O4)cc12 [Compound 7, 1′-[(4,7-Dimethoxy-1H-indol-2-yl)carbonyl]spiro[2H-1,3-benzoxazin-2,4′-piperidin]-4-(3H)-one]	–	–	–	–	–	–	–	–	1100 nM	850 nM	–	20000 nM	–	–	–	–	–	1200 nM
COc1cc(C(=O)N2CCC3(CC2)NC(=O)c2cc(N4CCOCC4)ccc2O3)nc2c(OC)cccc12 [Compound 196]	63.6%	58.5%	50.7%	39%	81.6%	56.4%	73.7%	56.1%	200 nM	21 nM	–	–	–	–	–	–	67%	–
COc1cc(C(=O)N2CCC3(CC2)NC(=O)c2cc(C(C)C)ccc2O3)nc2c(OC)cccc12 [Compound 186]	53.6%	41.8%	48.9%	33.2%	59.5%	52.1%	74.2%	39.2%	2 nM	2 nM	78%	–	–	–	–	–	55%	–
